From the CATMoS acute toxicity set (Mansouri et al. 2021)

Assay: GHS categories as the set defines them, by LD50: 1 up to 5, 2 up to 50, 3 up to 300, 4 up to 2000, 5 above 2000 mg/kg
Settings: rat; in vivo; po
`c1ccc(Nc2ccc(NC3CCCCC3)cc2)cc1` gave a GHS category of 5.
Molecule `CCCC(=O)OC(C)(C)Cc1ccccc1` has a GHS category of 5.
Molecule `C=CC(=O)NCCO` has a GHS category of 5.
`CCCN(CC)CC1COC2(CCC(C(C)(C)C)CC2)O1` (centres undefined) gave a GHS category of 4.
For `c1ccc(CN(Cc2ccccc2)Sc2nc3ccccc3s2)cc1`, the GHS category was 5.
In the case of `CSc1nc2cc(Cl)c(Oc3cccc(Cl)c3Cl)cc2[nH]1`, the GHS category is reported as 5.
With `CCO[Si](CN1CCOCC1)(OCC)OCC` the GHS category was 5.
With `Cc1cc(C2(c3ccc(O)cc3)NC(=O)NC2=O)ccc1O` (centres undefined) the GHS category was 5.
For `CCCC/C=C/C=C\C=O`, the GHS category was 5.
`CC(=O)O[C@@]12CCC[C@@](C)(CC[C@@H]3[C@@H]1CC3(C)C)C2` showed a GHS category of 5.
With `CC[C@H](C)C(=O)O[C@H]1C[C@H](O)C=C2C=C[C@H](C)[C@H](CC[C@@H](O)C[C@@H](O)CC(=O)O)[C@H]21` the GHS category was 5.
`CCOc1nc2cccc(C(=O)OC(C)OC(=O)OC3CCCCC3)c2n1Cc1ccc(-c2ccccc2-c2nnn[nH]2)cc1` (centres undefined) gave a GHS category of 5.
`CN(CCCN1c2ccccc2CCc2ccccc21)CC(=O)c1ccc(Cl)cc1` showed a GHS category of 4.
Work on `Cc1ccc(C2OC[C@@H]3OC(c4ccc(C)c(C)c4)O[C@H]([C@H](O)CO)[C@@H]3O2)cc1C` (some centres undefined) yielded a GHS category of 5.
`O=C1NC(=O)C(c2ccccc2)(c2ccccc2O)N1` (centres undefined) gave a GHS category of 5.
Molecule `Cc1ccn2nc(S(=O)(=O)Nc3c(F)cccc3F)nc2n1` has a GHS category of 5.
`CCOc1c(OC)cccc1-c1nc(=O)c2cc(C(=O)O)ccc2[nH]1` showed a GHS category of 4.
With `CC(=O)NC(C(=O)O)C(C)(C)S` (centres undefined) the GHS category was 4.
For `CC1CC(OC(=O)C(C)Oc2ccc(Cl)cc2)CC(C)(C)C1` (centres undefined), the GHS category was 5.
Molecule `CC(C)C1=CC23CCC4C(C)(C(=O)N(C)C)CCCC4(C)C2CC1C1C(=O)OC(=O)C13` (centres undefined) has a GHS category of 5.
Molecule `CC(C)(C)CNc1nnc(-c2ccccc2)c2ccccc12` has a GHS category of 5.
`COc1ccc(CCN(C(=O)CCCSc2nnnn2C)C2CCCCC2)cc1OC` showed a GHS category of 4.
Work on `CCOC(=O)C(=O)Nc1nc(-c2ccccc2)cs1` yielded a GHS category of 5.
`O=C1NC(=O)c2ccccc21` showed a GHS category of 5.
For `COC(=O)/C=C(/C)N[C@@H](C(=O)O)c1ccc(O)cc1`, the GHS category was 5.
For `CCC(=O)OCC(=O)OC(C)C1CCCC(C)(C)C1` (centres undefined), the GHS category was 5.
With `C=COCCCCCCCCCCCCCCCCCC` the GHS category was 5.
With `COc1cc(OC)nc(NC(=O)NS(=O)(=O)c2c(C(=O)O)cnn2C)n1` the GHS category was 5.
`CN1C[C@H](c2ccnn2C)CC2c3cccc4[nH]cc(c34)C[C@H]21` (some centres undefined) showed a GHS category of 4.
In the case of `CCN(CC)CCNC(C(=O)OCCC(C)C)c1ccccc1` (centres undefined), the GHS category is reported as 4.
`O=S(=O)(CCO)CS(=O)(=O)CCO` showed a GHS category of 5.
`Nc1ccc(C(=O)c2ccc(Cl)cc2)cc1O` gave a GHS category of 5.
`CN(C)C1=NC(=O)C(c2ccccc2)O1` (centres undefined) gave a GHS category of 5.
`O=C1c2ccccc2C(=O)c2c(O)ccc(O)c21` showed a GHS category of 5.
Work on `COc1ccc2c(c1)CCN(c1ccccc1)C2c1ccc(OCc2ccccc2)cc1` (centres undefined) yielded a GHS category of 4.
`CC(C)(C)OOC(C)(C)C` showed a GHS category of 5.
Work on `COC(=O)N(OC)c1ccccc1COc1ccn(-c2ccc(Cl)cc2)n1` yielded a GHS category of 5.
`CCCCCCCCCCCC#N` showed a GHS category of 5.
`CC(=O)Nc1ccc2cc(S(=O)(=O)O)c(N=Nc3ccc(S(=O)(=O)CCOS(=O)(=O)O)cc3)c(O)c2c1` gave a GHS category of 5.
For `CCOc1ccc(N(CCCC(=O)O)C(=O)c2ccc(Cl)cc2)cc1`, the GHS category was 5.
Molecule `Nc1c(Br)cc([N+](=O)[O-])cc1Br` has a GHS category of 4.
Work on `CC(C)c1nc2ccccc2c(=O)n1-c1ccncc1` yielded a GHS category of 4.
Work on `O=P(O)(O)c1ccccc1` yielded a GHS category of 5.
For `COc1c2ccoc2cc2oc(=O)ccc12`, the GHS category was 5.
Work on `CCCCCC1=C(CC(=O)OC)CCC1=O` yielded a GHS category of 5.
In the case of `CCCCn1cc2c3c(cccc31)C1=C[C@@H](CO)CN(C)[C@@H]1C2`, the GHS category is reported as 4.
In the case of `COC(=O)NC(=S)Nc1ccc(OCc2ccccc2)cc1[N+](=O)[O-]`, the GHS category is reported as 5.
Molecule `N#CC1CCCC2OCC(c3ccccc3)N12` (centres undefined) has a GHS category of 5.
With `COc1cc(S(=O)(=O)O)c(C)cc1/N=N/c1c(O)ccc2cc(S(=O)(=O)O)ccc12` the GHS category was 5.
`CNC(=O)C(C#N)=c1[nH]c(=C2C(=O)NC(=O)NC2=O)c2ccccc12` showed a GHS category of 5.
`Cc1c(N)nc(C(CC(N)=O)NCC(N)C(N)=O)nc1C(=O)NC(C(=O)NC(C)C(O)C(C)C(=O)NC(C(=O)NCCc1nc(-c2nc(C(=O)NCCCN[C@@H](C)c3ccccc3)cs2)cs1)C(C)O)C(O[C@@H]1O[C@@H](CO)[C@@H](O)[C@H](O)[C@@H]1O[C@H]1O[C@H](CO)[C@@H](O)[C@H](OC(N)=O)[C@@H]1O)c1c[nH]cn1` (some centres undefined) showed a GHS category of 5.
Work on `COC(=O)CCC(=O)OC` yielded a GHS category of 5.
Work on `O=C(CCl)N(c1ccccc1)c1c(Cl)cccc1Cl` yielded a GHS category of 5.
Molecule `CCCCCCCCCCCC(=O)OCC(COC(=O)CCCCCC)OC(=O)CCCCCCC` (centres undefined) has a GHS category of 5.
Work on `CC(C)C1OCCN1CCO` (centres undefined) yielded a GHS category of 4.
With `CCCCCCCCCCCCCCCC(=O)O` the GHS category was 5.
`CCCCCCCCCCCCSN(C)C(=O)Oc1cccc2c1OC(C)(C)C2` gave a GHS category of 3.
`O=C1NC(=O)C2CC=CCC12` (centres undefined) showed a GHS category of 5.
Molecule `CC1Oc2cc(C(=O)c3cccs3)ccc2N(C)C1=O` (centres undefined) has a GHS category of 5.
Molecule `COc1ccc(CCN2CCC(Nc3nc4ccccc4n3Cc3ccc(F)cc3)CC2)cc1` has a GHS category of 5.
`NC(=O)c1ccc(NC(=O)c2ccc(N)cc2)cc1` showed a GHS category of 5.
With `O=C1C=CC(=O)N1c1ccc(SSc2ccc(N3C(=O)C=CC3=O)cc2)cc1` the GHS category was 5.
Molecule `Cn1ccnc1Cc1nn[nH]n1` has a GHS category of 5.
`OCC1=C[C@H](N[C@H]2C[C@H](CO)[C@@H](O[C@@H]3O[C@H](CO)[C@@H](O)[C@H](O)[C@H]3O)[C@H](O)[C@H]2O)[C@H](O)[C@@H](O)[C@@H]1O` showed a GHS category of 5.
In the case of `NC(=O)Oc1ccccc1C(=O)Oc1ccc(Cl)cc1`, the GHS category is reported as 5.
`CCCCCC(O)CCO` (centres undefined) showed a GHS category of 5.
With `COc1ccc(C2(c3ccc(OC)c(Cl)c3)NC(=O)NC2=O)cc1` (centres undefined) the GHS category was 5.
`Cc1cccc(NC(=O)c2cc(C)[nH]n2)c1` showed a GHS category of 5.
With `CCCC(O)CCO` (centres undefined) the GHS category was 5.
`ClCCCCc1nnnn1C1CCCCC1` showed a GHS category of 5.
In the case of `NCCC(=O)NC(Cc1cnc[nH]1)C(=O)O` (centres undefined), the GHS category is reported as 5.
Work on `Cc1cccc2ncc(C(=O)NC3CC3)c(=O)n12` yielded a GHS category of 3.
`FC(F)(F)c1nc(NC2CC2)c2ncn(CC3CC3)c2n1` showed a GHS category of 3.
Work on `Nc1ccn([C@@H]2O[C@H](CO)[C@@H](O)[C@@H]2O)c(=O)n1` yielded a GHS category of 5.
With `CC1CC(OC(=O)COc2ccccc2Cl)CC(C)(C)C1` (centres undefined) the GHS category was 5.
Work on `CCCCCCBr` yielded a GHS category of 5.
Molecule `OCCn1c(C=Cc2nc3ccccc3[nH]2)nc2ccccc21` has a GHS category of 5.
`CC(=O)N(C)C(=O)Oc1cccc2c1OC1(CCCCC1)O2` showed a GHS category of 4.
`CCCCCCCCCCC=O` gave a GHS category of 5.
For `Cc1nc(N2CCOCC2)sc1C(=O)Nc1ccccc1`, the GHS category was 4.
Work on `CN/C(=N\[N+](=O)[O-])NCc1cnc(Cl)s1` yielded a GHS category of 5.
Work on `OCC(O)C1OC(c2ccco2)OC(CO)C1O` (centres undefined) yielded a GHS category of 5.
`Cn1c(N)c(NC=O)c(=O)n(C)c1=O` gave a GHS category of 5.
`CC(C)c1cc(C(C)C)cc(C(C)C)c1` showed a GHS category of 5.
`CC1COCc2cc3c(cc21)C(C)(C)C(C)C3(C)C` (centres undefined) gave a GHS category of 5.
In the case of `Nc1ncnc2c1ncn2[C@@H]1O[C@H](CO)[C@@H](O)[C@@H]1O`, the GHS category is reported as 5.
With `COCCNC(=O)c1ccnc(C(=O)NCCOC)c1` the GHS category was 5.
For `C[C@]12CC[C@H](O)CC1=CC[C@@H]1[C@@H]2CC[C@]2(C)C(=O)CC[C@@H]12`, the GHS category was 5.
Molecule `CC(O)C(O)C(=O)C(O)C(O)Oc1cccc2c1C(=O)c1c(O)cc(C(=O)O)cc1C2C1c2cc(C(=O)O)cc(O)c2C(=O)c2c(OC(O)C(O)C(=O)C(O)C(C)O)cccc21` (centres undefined) has a GHS category of 5.
`CCN(Cc1cccc(S(=O)(=O)O)c1)c1ccc(C(=C2C=CC(=[N+](CC)Cc3cccc(S(=O)(=O)[O-])c3)C=C2)c2ccccc2)cc1` gave a GHS category of 5.
`CCCCCCCCOc1ccccc1C(=O)Nc1ccc(C(=O)OCC[N+](C)(CC)CC)cc1` gave a GHS category of 4.
`CN(C)CC(=O)O` showed a GHS category of 4.
`CC[N+](C)(CC)CCSC1=Nc2ccccc2N=C(c2ccc(Sc3ccccc3)cc2)C1` showed a GHS category of 5.
For `O=C(O)c1c(Cl)c(Cl)c(C(=O)O)c(Cl)c1Cl`, the GHS category was 5.
`OC(Cc1ccccc1Cl)(Cn1[nH]cnc1=S)C1(Cl)CC1` (centres undefined) gave a GHS category of 5.
With `COc1ccc2c(c1)CCN(c1ccccc1)C2c1ccccc1N` (centres undefined) the GHS category was 4.
In the case of `CCC1(C)COC(Cn2cncn2)(c2cc3ccccc3o2)OC1` (centres undefined), the GHS category is reported as 4.
`C[C@H]1CO[C@@](Cn2cncn2)(c2cc3cc(Cl)cc(Cl)c3o2)O1` gave a GHS category of 4.
Molecule `CCc1c(Cc2ccc(-c3ccccc3-c3nn[nH]n3)cc2)c(=O)nc2nc[nH]n12` has a GHS category of 4.
Work on `NC(N)=Nc1nc2c(s1)CN(C(=O)NC1CC1)CC2` yielded a GHS category of 4.
With `CCCCCCCCO` the GHS category was 5.
With `COc1c(O)cc2c(c1O)C1OC(CO)C(O)C(O)C1OC2=O` (centres undefined) the GHS category was 5.
`CCC(=O)OC1C=CC2C3CCC(C3)C12` (centres undefined) gave a GHS category of 5.
Work on `CCCc1c(Cc2ccc(-c3ccccc3-c3nn[nH]n3)cc2)c(=O)nc2nc(SC)[nH]n12` yielded a GHS category of 4.
`Cc1c(S(C)(=O)=O)ccc(C(=O)O)c1Cl` showed a GHS category of 5.
For `Nc1nc(N)nc(Nc2nc(N)nc(N)n2)n1`, the GHS category was 5.
Molecule `CCCOC(=O)Nc1nc(N2CC=CCC2)cc2nc(=O)on12` has a GHS category of 5.
Molecule `CC1CCCCC1` has a GHS category of 5.
Work on `CCOC(=O)c1nn(-c2ccc(OC)cc2)c2c1CCN(c1ccc([N+](=O)[O-])cc1)C2=O` yielded a GHS category of 5.
Molecule `CCNc1nc(Cl)nc(NCC(=O)O)n1` has a GHS category of 5.
Work on `O=C(O)C[C@H](NCCN[C@@H](CC(=O)O)C(=O)O)C(=O)O` yielded a GHS category of 5.
In the case of `CCCCCCCc1ccc(O)cc1`, the GHS category is reported as 5.
With `O=S1OCC(CCl)O1` (centres undefined) the GHS category was 2.
`O=S(=O)(NCl)c1ccccc1` showed a GHS category of 4.
With `COCCCCC(=O)c1ccc(C(F)(F)F)cc1` the GHS category was 5.
Work on `CC(=O)c1ccc2c(c1)OCC(=O)N2C` yielded a GHS category of 5.
With `O=C(CCc1ccc2c(c1)OCO2)C1C(=O)CC(c2ccccc2)CC1=O` (centres undefined) the GHS category was 5.
For `Cc1nsc(NC(=O)c2ccccc2)c1C(=O)Nc1ccc(Cl)cc1`, the GHS category was 5.
For `CCCCCOC(=O)CC`, the GHS category was 5.
